Measurements: patent US5646014A, “Peptide, antibacterial agent, peptide gene, recombinant DNA and method for preparing the peptide” (Agriculture, Forestry and Fisheries Technical Information …, priority 1994, dated 1997)

What was measured:
Type in all cases: cell-based
Bacillus cereus IF03457 [1] = assay: Minimum inhibitory concentration (M.I.C.), liquid medium; details: NB medium, 30° C. for 20 hours
Procedure: (§1) In order to examine the antibacterial activity of the moricin obtained in Example 1 against various bacteria, the mimimum inhibitory concentration (M.I.C.) of moricin was measured based on the method described in Eur. J. Biochem., 187:381-386 (1990).
(§2) When E. coli and Staphylococcus aureus subsp. aureus were used as test bacteria, brain heart infusion medium (BHI medium, Difco) was used. When Bacillus cereus was used as a test bacterium, nutrient broth medium (NB medium, Difco) was used.
(§3) To a test medium suspending a test bacterium at a concentration of 4×10^4 cells/ml, an equal volume of the same medium containing moricin at varied concentrations was added and incubated at 30° C. for 20 hours. After the incubation, an equal volume of 6% formalin was added thereto to give a two-fold dilution. Then, the degree of cell proliferation was examined by measuring the absorbance at 650 nm. As a control, cecropin B1 [Comp. Biochem. Physiol. 95B:551 (1990)] was used which is a known antibacterial peptide derived from silkworm.

Escherichia coli JM109 [2] = assay: as above; details: BHI medium, 30° C. for 20 hours
Procedure: as §1, §2, §3

[3] = test system: Staphylococcus aureus subsp. aureus ATCC 6538P; assay: as above; details: BHI medium, 30° C. for 20 hours
Procedure: as §1, §2, §3

Bacillus cereus IF03457 [4] = assay: Growth inhibition zone on agarose plate (Test Example 2); details: 2 μl of 50 μM solution per well, NB plate, no sodium chloride, 2.0 mm = no zone
Procedure: (§4) The antibacterial activity of the moricin obtained in Example 1 against various bacteria was examined based on the method described in Nature, 292:246 (1981).
(§5) NB plate medium containing 0.8% agarose (optionally, sodium chloride was added thereto to give a concentration of 150 mM) was used.
(§6) 50 μM moricin solution was prepared. 2 μl of this solution was added to each well of a plate medium into which a test bacterium had been inoculated. The plate was incubated at 30° C. overnight and then diameters of the growth inhibition zones formed were measured. As a control, cecropin B1 was used. Incidentally, the diameter of the well was 2.0 mm.

[5] = test system: Bacillus megaterium IAM1030; assay: as above; details: 2 μl of 50 μM solution per well, NB plate, no sodium chloride, 2.0 mm = no zone
Procedure: as §4, §5, §6

[6] = test system: Bacillus subtilis IAM1107; assay: as above; details: 2 μl of 50 μM solution per well, NB plate, no sodium chloride, 2.0 mm = no zone
Procedure: as §4, §5, §6

Escherichia coli JM109 [7] = assay: as above; details: 2 μl of 50 μM solution per well, NB plate, no sodium chloride, well 2.0 mm, 2.0 mm = no zone
Procedure: as §4, §5, §6

[8] = test system: Pseudomonas aeruginosa IAM1514; assay: as above; details: 2 μl of 50 μM solution per well, NB plate, no sodium chloride, 2.0 mm = no zone
Procedure: as §4, §5, §6

[9] = test system: Pseudomonas fluorescens IAM1179; assay: as above; details: 2 μl of 50 μM solution per well, NB plate, no sodium chloride, 2.0 mm = no zone
Procedure: as §4, §5, §6

[10] = test system: Staphylococcus aureus ATCC6538P; assay: as above; details: 2 μl of 50 μM solution per well, 2.0 mm = no zone
Procedure: as §4, §5, §6

[11] = test system: Staphylococcus aureus IF03083; assay: as above; details: 2 μl of 50 μM solution per well, NB plate, no sodium chloride, 2.0 mm = no zone
Procedure: as §4, §5, §6

[12] = test system: Staphylococcus epidermidis IF012993; assay: as above; details: 2 μl of 50 μM solution per well, NB plate, no sodium chloride, 2.0 mm = no zone
Procedure: as §4, §5, §6

[13] = test system: Staphylococcus xylosus IAM1312; assay: as above; details: 2 μl of 50 μM solution per well, NB plate, no sodium chloride, 2.0 mm = no zone
Procedure: as §4, §5, §6

[14] = test system: Streptococcus pyogenes ATCC21547; assay: as above; details: 2 μl of 50 μM solution per well, BHI plate, no sodium chloride, 2.0 mm = no zone
Procedure: as §4
When Streptococcus pyogenes was used as a test bacterium, 0.8% agarose-containing BHI plate medium was used.
as §6

In the case of “Cecropin B1: known antibacterial peptide derived from silkworm, used as a control (RWKIFKKIEKMGRNIRDGIVKAGPAIEVLGSAKAI; UniProt P04142 27-61, looked up)”, the M.I.C. (Bacillus cereus IF03457 [1]) is reported as > 16 µg/mL, the M.I.C. (Escherichia coli JM109 [2]) is reported as < 1 µg/mL and the M.I.C. [3] is reported as > 16 µg/mL. For the same substance, the “Diameter of the Inhibition Zone” value (Bacillus cereus IF03457 [4]) was 2.0 mm, the “Diameter of the Inhibition Zone” value [5] was 10.9 mm and the “Diameter of the Inhibition Zone” value [6] was 7.8 mm. The “Diameter of the Inhibition Zone” value (Escherichia coli JM109 [7]) was 10.1 mm, the “Diameter of the Inhibition Zone” value [8] was 7.9 mm and the “Diameter of the Inhibition Zone” value [9] was 8.9 mm. For the same substance, the “Diameter of the Inhibition Zone” value ([10]; NB plate with 150 mM sodium chloride) was 2.3 mm, the “Diameter of the Inhibition Zone” value ([10]; NB plate, no sodium chloride) was 6.9 mm and the “Diameter of the Inhibition Zone” value [11] was 2.0 mm. The “Diameter of the Inhibition Zone” value [12] was 9.0 mm, the “Diameter of the Inhibition Zone” value [13] was 2.0 mm and the “Diameter of the Inhibition Zone” value [14] was 2.0 mm.
